Row | SMILES | melting point [°C]
1 | CO[C@@H]1Cc2ccccc2[C@H]1Oc1cc(C(=O)N(C)C)cc2c1nc(C)n2C.O=C(O)C(=O)O (relative stereo) [Example 12, 4-(trans-2,3-Dihydro-2-methoxy-1-indenyloxy)-6-(N,N-dimethylaminocarbonyl)-1,2-dimethyl-1H-benzimidazole Oxalate] | 126 to 127
2 | Cc1nc2c(O[C@@H]3c4ccccc4C[C@H]3O)cc(C(=O)O)cc2n1C (relative stereo) [Example 16, 4-(trans-2,3-Dihydro-2-hydroxy-1-indenyloxy)-1,2-dimethyl-1H-benzimidazole-6-carboxylic Acid] | 306
3 | CCOC(=O)c1cc(O[C@@H]2c3c(C)ccc(C)c3C[C@H]2O)c2nc(C)n(C)c2c1 (relative stereo) [Example 20, Ethyl 4-(trans-2,3-dihydro-2-hydroxy-4,7-dimethyl-1-indenyloxy)-1,2-dimethyl-1H-benzimidazole-6-carboxylate] | 184
4 | Cc1ccc(C)c2c1C[C@@H](O)[C@@H]2Oc1cc(C(=O)N(C)C)cc2c1nc(C)n2C (relative stereo) [Example 22, 4-(trans-2,3-Dihydro-2-hydroxy-4,7-dimethyl-1-indenyloxy)-6-(N,N-dimethylaminocarbonyl)-1,2-dimethyl-1H-benzimidazole] | 134
5 | CCN(CCOC)C(=O)c1cc(O[C@@H]2c3ccccc3C[C@H]2O)c2nc(C)n(C)c2c1.O=C(O)C(=O)O (relative stereo) [Example 24, 4-(trans-2,3-Dihydro-2-hydroxy-1-indenyloxy)-6-[N-(2-methoxyethyl)-N-ethyl-amino-carbonyl]-1,2-dimethyl-1H-benzimidazole Oxalate] | 141
6 | Cc1nc2c(O[C@@H]3c4ccccc4C[C@H]3O)cc(C(=O)NC3CC3)cc2n1C (relative stereo) [Example 26, 6-(Cyclopropylaminocarbonyl)-4-(trans-2,3-dihydro-2-hydroxy-1-indenyloxy)-1,2-dimethyl-1H-benzimidazole] | 148 to 149
7 | Cc1nc2c(N[C@@H]3c4ccccc4C[C@H]3O)cc(C(=O)N(C)C)cc2n1C (relative stereo) [Example 51, 4-(trans-2,3-Dihydro-2-hydroxy-1-indenylamino)-6-(N,N-dimethylaminocarbonyl)-1,2-dimethyl-1H-benzimidazole] | 219 to 221
8 | Cn1c(C2CC2)nc2c(O[C@@H]3c4ccccc4C[C@H]3O)cc(C(=O)O)cc21 (relative stereo) [Example 59, 2-Cyclopropyl-4-(trans-2,3-dihydro-2-hydroxy-1-indenyloxy)-1-methyl-1H-benzimidazole-6-carboxylic acid] | 132 to 134
9 | CCc1cccc(C)c1COc1cc(C(=O)OC)cc2c1nc(C)n2C [Example 1, Methyl 4-(2-ethyl-6-methyl-benzyloxy)-1,2-dimethyl-1H-benzimidazole-6-carboxylate] | 157
10 | COC(=O)c1cc(OCc2c(C)cccc2C)c2nc(C)n(C)c2c1 [Example 3, Methyl 4-(2,6-dimethyl-benzyloxy)-1,2-dimethyl-1H-benzimidazole-6-carboxylate] | 165 to 169
11 | Cc1cccc(C)c1COc1cc(C(=O)O)cc2c1nc(C)n2C [Example 4, 4-(2,6-Dimethyl-benzyloxy)-1,2-dimethyl-1H-benzimidazole-6-carboxylic Acid] | 285 to 286
12 | Cc1nc2c(OCc3ccccc3)cc(CO)cc2n1C [Example 5, 4-Benzyloxy-6-hydroxymethyl-1,2-dimethyl-1H-benzimidazole] | 213 to 214
13 | COCc1cc(OCc2ccccc2)c2nc(C)n(C)c2c1 [Example 6, 4-Benzyloxy-6-methoxymethyl-1,2-dimethyl-1H-benzimidazole] | 113
14 | Cc1nc2c(OCc3ccccc3)cc(C(=O)N(C)C)cc2n1C [Example 7, 4-Benzyloxy-6-(N,N-dimethylaminocarbonyl)-1,2-dimethyl-1H-benzimidazole] | 159 to 160
15 | Cc1cccc(C)c1COc1cc(C(=O)N(C)C)cc2c1nc(C)n2C [Example 9, 6-(N,N-Dimethylaminocarbonyl)-4-(2,6-dimethyl-benzyloxy)-1,2-dimethyl-1H-benzimidazole] | 180
16 | CCOC(=O)c1cc(NCc2c(C)cccc2CC)c2nc(C)n(C)c2c1 [Example 27, Ethyl 4-(2-ethyl-6-methyl-benzylamino)-1,2-dimethyl-1H-benzimidazole-6-carboxylate] | 171 to 173
17 | CCOC(=O)c1cc(NCc2c(C)cccc2C)c2nc(C)n(C)c2c1 [Example 28, Ethyl 4-(2,6-dimethyl-benzylamino)-1,2-dimethyl-1H-benzimidazole-6-carboxylate] | 190
18 | CCOC(=O)c1cc(NCc2c(C)cccc2CC)c2nc(COC)n(C)c2c1 [Example 29, Ethyl 4-(2-ethyl-6-methyl-benzylamino)-2-methoxymethyl-1-methyl-1H-benzimidazole-6-carboxylate] | 106 to 107
19 | CCOC(=O)c1cc(NCc2c(C)cccc2C)c2nc(COC)n(C)c2c1 [Example 30, Ethyl 4-(2,6-dimethyl-benzylamino)-2-methoxymethyl-1-methyl-1H-benzimidazole-6-carboxylate] | 134 to 135

Row | SMILES | melting point [°C]
20 | CCc1cccc(C)c1CNc1cc(C(=O)O)cc2c1nc(C)n2C [Example 31, 4-(2-Ethyl-6-methyl-benzylamino)-1,2-dimethyl-1H-benzimidazole-6-carboxylic Acid] | 312 to 314
21 | Cc1cccc(C)c1CNc1cc(C(=O)O)cc2c1nc(C)n2C [Example 32, 4-(2,6-Dimethyl-benzylamino)-1,2-dimethyl-1H-benzimidazole-6-carboxylic Acid] | 315 to 318
22 | CCc1cccc(C)c1CNc1cc(C(=O)O)cc2c1nc(COC)n2C [Example 33, 4-(2-Ethyl-6-methyl-benzylamino)-2-methoxymethyl-1-methyl-1H-benzimidazole-6-carboxylic Acid] | 275 to 278
23 | COCc1nc2c(NCc3c(C)cccc3C)cc(C(=O)O)cc2n1C [Example 34, 4-(2,6-Dimethyl-benzylamino)-2-methoxymethyl-1-methyl-1H-benzimidazole-6-carboxylic Acid] | 269 to 272
24 | Cc1cccc(C)c1CNc1cc(C(=O)NCCO)cc2c1nc(C)n2C [Example 36, 4-(2,6-Dimethyl-benzylamino)-6-(2-hydroxyethyl-aminocarbonyl)-1,2-dimethyl-1H-benzimidazole] | 259 to 260
25 | COCc1nc2c(NCc3c(C)cccc3C)cc(C(=O)NCCO)cc2n1C [Example 37, 4-(2,6-Dimethyl-benzylamino)-6-(2-hydroxyethyl-aminocarbonyl)-2-methoxymethyl-1-methyl-1H-benzimidazole] | 186 to 187
26 | Cc1cccc(C)c1CNc1cc(C(N)=O)cc2c1nc(C)n2C [Example 39, 4-(2,6-Dimethyl-benzylamino)-1,2-dimethyl-1H-benzimidazole-6-carboxamide] | 272
27 | CCc1cccc(C)c1CNc1cc(C(=O)N(C)C)cc2c1nc(C)n2COCc1ccccc1.O=C(O)C(=O)O [Example 48, 1-Benzyloxymethyl-6-(N,N-dimethylaminocarbonyl)-4-(2-ethyl-6-methyl-benzylamino)-2-methyl-1H-benzimidazole Oxalate] | 168 to 169
28 | COC(=O)Nc1cccc(C)c1CNc1cc(C(=O)N(C)C)cc2c1nc(C)n2C [Example 50, 6-(N,N-Dimethylaminocarbonyl)-4-(2-methoxycarbonylamino-6-methyl-benzylamino)-1,2-dimethyl-1H-benzimidazole] | 193 to 195
29 | CCOC(=O)c1cc(OCc2ccccc2)c2nc(C)n(C)c2c1 [Example 52, Ethyl 4-benzyloxy-1,2-dimethyl-1H-benzimidazole-6-carboxylate] | 152
30 | COC(=O)c1cc(OCc2ccccc2)c2nc(C)n(C)c2c1 [Example 53, Methyl 4-benzyloxy-1,2-dimethyl-1H-benzimidazole-6-carboxylate] | 166
31 | Cc1cccc(C)c1CNc1cc(C(=O)N2CC2)cc2c1nc(C)n2C [Example 54, 6-(1-Aziridinylcarbonyl)-4-(2,6-dimethyl-benzylamino)-1,2-dimethyl-1H-benzimidazole] | 201 to 202
32 | Cc1cccc(C)c1CNc1cc(C(=O)N(C)CCO)cc2c1nc(C)n2C [Example 56, 4-(2,6-Dimethyl-benzylamino)-6-(N-2-hydroxyethyl-N-methylaminocarbonyl)-1,2-dimethyl-1H-benzimidazole] | 177 to 178
33 | Cc1cccc(C)c1CNc1cc(C(=O)NN)cc2c1nc(C)n2C [Example 57, 4-(2,6-Dimethyl-benzylamino)-1,2-dimethyl-1H-benzimidazole-6-carboxylic acid hydrazide] | 277 to 278
34 | Cc1cccc(C)c1CNc1cc(CO)cc2c1nc(C)n2C [Example 58, 4-(2,6-Dimethyl-benzylamino)-6-hydroxymethyl-1,2-dimethyl-1H-benzimidazole] | 245 to 246
35 | Cc1ccccc1CNc1cc(C(=O)N(C)C)cc2c1nc(C)n2C [Example 61, 6-(N,N-Dimethylaminocarbonyl)-1,2-dimethyl-4-(2-methyl-benzylamino)-1H-benzimidazole] | 158 to 159
36 | Cc1coc(C)c1N(C)c1cc(C(=O)N(C)C)cc2c1nc(C)n2C [Example 62, 6-(N,N-Dimethylaminocarbonyl)-4-(2,4-dimethyl-furan-3-yl-methylamino)-1,2-dimethyl-1H-benzimidazole] | 163 to 164
37 | Cc1cccc(C)c1CNc1cc(S(=O)(=O)N(C)C)cc2c1nc(C)n2C [Example 63, 7-(2,6-Dimethyl-benzylamino)-2,3-dimethyl-3H-benzimidazole-5-sulfonic acid dimethylamide] | 237 to 238
38 | CCOC(=O)c1cc(NCc2c(C)cccc2C)c2nc(C)n(COCc3ccccc3)c2c1 [Example 64, Ethyl1-benzyloxymethyl-4-(2,6-dimethyl-benzylamino)-2-methyl-1H-benzimidazole-6-carboxylate] | 155 to 156
